Paper PMC12113707, “Microwave Assisted Synthesis of Antioxidant Dihydro-Pyrazole Hybrids as Possible Lipoxygenase Inhibitors” (Molecules, 2025)

Tests used:
[1] = Experimental lipophilicity RM by reverse phase thin layer chromatography (RP-TLC); assay type: physicochemical; conditions: methanol-water mobile phase
Protocol: Lipophilicity is a main physicochemical parameter for bioactive molecules, linking solubility, ligand-target binding interactions, membrane permeability absorption, distribution, bioavailability, metabolism, elimination and toxicological effects (ADMET), playing an important role in biological activity. The experimental values of lipophilicity RM were determined by reverse phase thin layer chromatography. For the experimental determination of lipophilicity the hydrophilic-lipid phase system is a mixture of methanol- water (90/10%). The theoretical lipophilicity values are determined by the Bioloom program (http://biobyte.com/bb/prod/bioloom.html, accessed on 8 April 2024) (Table 1). According to the calculated clog P values, the most lipophilic compounds are 3c, 3d and 3f while the less lipophilic ones are compounds 5a and 5b.
Melting points were determined on a MEL-Temp II (Lab. Devices, Holliston, MA, USA). In vitro tests were carried out using a UV-Vis spectra and recorded on a Perkin-Elmer 554 double-beam spectrophotometer (Perkin-Elmer Corporation Ltd., Lane Beaconsfield, Bucks, UK). Infrared spectra (KBr pellets) were recorded with Perkin-Elmer 597 spectrophotometer (Perkin-Elmer Corporation Ltd., Lane Beaconsfield, Bucks, UK). The ^1H […] Magnetic Resonance (^1H-NMR) spectra were acquired on an Agilent 500/54 (DD2) at 500 MHz in CDCl3 using tetramethylsilane as an internal standard. Agilent 500/54 (DD2) ^13C NMR spectra were acquired at 125 MHz in CDCl3 solutions with tetramethylsilane serving as an internal reference. Coupling constants J are expressed in Hz, and chemical shifts are reported in ppm. Thermo Fisher Scientific Inc., Waltham, MA, USA, used MeOH as the solvent to calculate mass spectra using an LC-PDA-MS Thermo Finnigan system (LC Pump Plus, Autosampler, Surveyor PDA Plus Detector) interfaced with an ESI MSQ Plus (Thermo Finnigan). Thin-layer chromatography using 5554 F254 Silica gel/TLC cards (Merck and Fluka Chemie GmbH Buchs, Steinheim, Switzerland) was used to monitor the reaction progress. Silica gel 60 F254 plates with a diameter of 2 mm were utilized for preparative thin layer chromatography (prep TLC) by Merck KgaA (ICH078057). Merck (20 × 20 cm) plates were used for the experimental assessment of the lipophilicity using reverse phase thin-layer chromatography (RP-TLC) TLC-Silica gel 60 F254 DC Kieselgel.
In this experiment, TLC silica gel 60 F254 1.05715.0001 commercial glass plates from Merck were used. The plates were first immersed in a 5% v/v solution of liquid paraffin in petroleum ether and left for 90 s to become completely impregnated with the stable lipophilic phase. They were then activated by standing for 30 min in an oven at 40 °C and kept there until the time of use. A 70% v/v MeOH/H2O mixture was used as the mobile phase. The mobile phase was saturated with a few drops of liquid paraffin before being used. The spots of the compounds were placed on the plate at a distance of 2 cm from the edges of the plate and also from each other. The development of the spots on the plates was carried out in closed chromatography chambers where the atmosphere is saturated with the mobile phase at room temperature. At the end of development, the solvent-formed front was marked and the plates are dried at 80 °C for about 20–30 min. The appearance of the spots was made under an ultraviolet light lamp. The Rf values were the average of 5–6 measurements for each compound and assuming that the compounds will have been rotated to different positions on the plates. The RM values were calculated from the corresponding Rf values according to the equation [67].RM = log [(1/Rf) − 1](1)

[2] = Interaction with the stable free radical DPPH (reducing activity); conditions: 517 nm
Protocol: In general, the compounds present moderate to good antioxidant activity. It seems that the dibenzylacetones present satisfactory antioxidant activity compared to the hybrids at 60 min (1b, 1d and 1f).
The tested compounds (0.1 mM final concentration) dissolved in DMSO were incubated with a solution of DPPH in absolute ethanol in absence of light. The absorbance at 20 and 60 min at 517 nm was recorded at room temperature. NDGA was used as the reference compound.

[3] = Inhibition of AAPH-induced linoleic acid peroxidation; conditions: 37 °C, 234 nm
Protocol: The ability of the compounds to inhibit AAPH-induced peroxidation of linoleic acid is another assay to investigate the antioxidant properties of the compounds. Azo compounds such as 2,2′-azobis dihydrochloride (2-amidinopropane) (AAPH) are capable of generating free radicals through spontaneous decomposition at 37 °C. The R- radicals react immediately with air-oxygen to produce peroxy radicals. AAPH was therefore used as the radical initiator and sodium linoleate as substrate subjected to peroxidation. Measurements were carried out at 234 nm using a UV/V is spectrophotometer. Dichalcone 1i substituted with two phenyl groups presents the lowest lipophilicity. […] Therefore, hydrophilic substituents offer an increase in activity.
The interaction of free radicals with cell membrane lipids induces free radical chain reactions, a process called lipid peroxidation. 930 μL of a phosphate buffer solution (0.05 M, pH = 7.4), 10 μL of the sodium linolate solution (16 mM in a buffer solution of Tris-HCl pH = 9) and 10 μL of the tested compounds (stock solutions 100 μΜ) were mixed and the oxidative procedure started after the addition of 50 μL AAPH at 37 °C under air conditions. The conjugated diene’s absorbance was measured at 234 nm at a thermostable spectrophotometer (37 °C) according to previous publication.

[4] = target: T1, soybean lipoxygenase (SLOX-1) (Glycine max, UniProt P08170); experiment: Inhibition of soybean lipoxygenase in vitro; assay type: biochemical; conditions: pH 9, sodium linoleate substrate; for inhibition at 100 µM: read-out: LOX% Inhibition, 100 μM (±SD)
T1 construct: 200 μL of plant-derived lipoxygenase solution (1:9 × 10^−4 w/v, in saline); purchased Sigma Chemical, Co; host or cells: soybean (plant-derived)
T1 sequence (P08170 1-839): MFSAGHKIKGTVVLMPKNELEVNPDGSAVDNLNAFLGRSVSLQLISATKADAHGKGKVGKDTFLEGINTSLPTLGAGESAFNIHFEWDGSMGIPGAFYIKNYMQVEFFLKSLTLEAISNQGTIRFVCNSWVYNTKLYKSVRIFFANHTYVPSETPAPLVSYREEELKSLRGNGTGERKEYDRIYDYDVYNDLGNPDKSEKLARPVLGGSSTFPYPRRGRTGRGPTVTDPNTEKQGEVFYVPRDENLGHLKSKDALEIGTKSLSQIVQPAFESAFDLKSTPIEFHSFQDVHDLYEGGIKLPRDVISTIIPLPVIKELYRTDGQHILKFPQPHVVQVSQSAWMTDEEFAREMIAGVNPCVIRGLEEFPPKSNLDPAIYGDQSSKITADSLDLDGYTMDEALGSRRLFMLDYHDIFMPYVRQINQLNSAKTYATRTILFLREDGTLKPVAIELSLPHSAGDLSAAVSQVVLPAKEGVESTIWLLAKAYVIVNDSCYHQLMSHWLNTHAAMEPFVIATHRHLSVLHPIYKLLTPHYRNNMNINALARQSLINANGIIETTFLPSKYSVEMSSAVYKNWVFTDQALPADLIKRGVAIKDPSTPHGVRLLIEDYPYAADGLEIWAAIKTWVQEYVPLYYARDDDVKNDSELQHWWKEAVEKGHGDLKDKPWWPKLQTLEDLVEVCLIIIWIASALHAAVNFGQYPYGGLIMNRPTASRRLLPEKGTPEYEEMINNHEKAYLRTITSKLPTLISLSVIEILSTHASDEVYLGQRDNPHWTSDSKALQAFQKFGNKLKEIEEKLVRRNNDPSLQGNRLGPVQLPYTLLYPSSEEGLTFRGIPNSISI
Protocol: Soybean lipoxygenase SLOX-1 at pH 9 is used in vitro. During this assay linoleic acid sodium salt is converted to the corresponding 13-hydroperoxide. The reaction is recorded photometrically at 234 nm using the UV-based enzyme assay. […] It is known that soybean LOX inhibitory activity induced by NSAIDs is qualitatively quite similar to the inhibition observed on the rat mast cells LOX and this assay may be used as a qualitative or semi-quantitative screen for such activity.
To a quartz cell, add 790 μL of Tris-HCl pH = 9.0 buffer, 200 μL of plant-derived lipoxygenase solution (1:9 × 10^−4 w/v, in saline), 10 μL of the test compound solution and 100 μL of sodium linoleate solution (3 mM concentration). The absorbance was measured at 234 nm, where the change in absorbance due to the conversion of linoleic acid to […] was recorded. A solution of 790 μL of Tris-HCl pH = 9.0 buffer, 200 μL of a plant-derived lipoxygenase solution (1:9 × 10^−4 w/v, in saline), 10 μL of DMSO and 100 μL of sodium linoleate solution (3 mM concentration) was used as a control.

Row | RM ± SD [1] | IC50 ([4]; read-out: LOX IC50 (μM) (±SD)) [µM] | inhibition at 100 µM [4] [%] | SMILES | RA%, 100 μM, 20 min (±SD) [2] [%] | RA%, 100 μM, 60 min (±SD) [2] [%] | AAPH% Inhibition, 100 μM (±SD) [3] [%]
1 | 0.10 ± 0.003 | 10 | – | O=C(/C=C/c1ccccc1)/C=C/c1ccccc1 [Compound 1a, (1E,4E)-1,5-diphenyl-1,4-pentadien-3-one] | 5 ± 0.5 | 10 ± 0.5 | 69 ± 0.3
2 | 0.19 ± 0.001 | – | 30 ± 0.1 | O=C(/C=C/c1ccc(F)cc1)/C=C/c1ccc(F)cc1 [Compound 1b, (1E,4E)-1,5-bis(4-fluorophenyl)-1,4-pentadien-3-one] | 13 ± 0.6 | 100 ± 1.1 | 37 ± 0.1
3 | 0.65 ± 0.034 | – | 28 ± 0.6 | O=C(/C=C/c1ccc(Br)cc1)/C=C/c1ccc(Br)cc1 [Compound 1c, (1E,4E)-1,5-bis(4-bromophenyl)-1,4-pentadien-3-oneone] | – | 44 ± 1.6 | 61 ± 0.5
4 | 0.50 ± 0.042 | – | 38 ± 0.7 | O=C(/C=C/c1ccc(Cl)cc1)/C=C/c1ccc(Cl)cc1 [Compound 1d, (1E,4E)-1,5-bis(4-chlorophenyl)-1,4-pentadien-3-one] | 86 ± 4.5 | 95 ± 4.8 | 53 ± 0.6
5 | 2.1 ± 0.17 | – | – | Brc1ccc(/C=C/C2=NN(c3ccccc3)C(c3ccc(Br)cc3)C2)cc1 (stereo not shown) [Compound 2c] | 21 ± 0.6 | – | 68 ± 0.6
6 | −0.31 ± 0.023 | – | 39 ± 0.4 | N#Cc1ccc(N2N=C(/C=C/c3ccccc3)CC2c2ccccc2)cc1 (stereo not shown) [Compound 4a, (E)-4-(5-phenyl-3-styryl-4,5-dihydro-1H-pyrazo-1-yl)-benzonitrile] | – | – | 98 ± 0.4
7 | 0.61 ± 0.053 | – | – | N#Cc1ccc(N2N=C(/C=C/c3ccc(F)cc3)CC2c2ccc(F)cc2)cc1 (stereo not shown) [Compound 4b, (E)-4-(5-(4-fluorophenyl)-3-(4-fluorostyryl)-4,5-dihydro-1H-pyrazo-1-yl)-benzonitrile] | 2 ± 0.1 | – | 97 ± 0.6
8 | 0.8 ± 0.031 | – | 22 ± 1.8 | N#Cc1ccc(N2N=C(/C=C/c3ccc(C(F)(F)F)cc3)CC2c2ccc(C(F)(F)F)cc2)cc1 (stereo not shown) [Compound 4f, (E)-4-(5-(4-(trifluoromethyl)phenyl)-3-(4-(trifluoromethyl)styryl)-4,5-dihydro-1H-pyrazol-1-yl)-benzonitrile] | – | – | 12 ± 1.1
9 | 0.06 ± 0.005 | – | 4 ± 0.3 | NC(=O)N1N=C(/C=C/c2ccccc2)CC1c1ccccc1 (stereo not shown) [Compound 5a, (E)-5-phenyl-3-styryl-4,5-dihydro-1H-pyrazole-1-carboxamide] | – | – | 29 ± 2.2
10 | 0.60 ± 0.055 | – | 37 ± 0.6 | NC(=O)N1N=C(/C=C/c2ccc(Br)cc2)CC1c1ccc(Br)cc1 (stereo not shown) [Compound 5c, (E)-5-(4-bromophenyl)-3-(4-bromostyryl)-4,5-dihydro-1H-pyrazole-1-carboxamide] | – | – | 85 ± 0.6
11 | 0.24 ± 0.021 | – | 26 ± 0.3 | CC(=O)N1N=C(/C=C/c2ccc(F)cc2)CC1c1ccc(F)cc1 (stereo not shown) [Compound 6b, (E)-5-(4-fluorophenyl)-3-(4-fluorostyryl)-4,5-dihydro-1-H-pyrazol-1-ethan-1-one] | – | – | 46 ± 0.6
12 | 0.78 ± 0.051 | – | 1 ± 0.07 | CC(=O)N1N=C(/C=C/c2ccc(Br)cc2)CC1c1ccc(Br)cc1 (stereo not shown) [Compound 6c, (E)-5-(4-bromophenyl)-3-(4-bromostyrene)-4,5-dihydro-1-H-pyrazol-1-ethan-1-one] | – | – | 71 ± 0.4
13 | – | – | – | CC(Cc1ccc(O)c(O)c1)C(C)Cc1ccc(O)c(O)c1 (stereo not shown) [NDGA, Nordihydroguaretic acid, reference compound] | 87 | 93 | –
14 | – | – | – | Cc1c(C)c2c(c(C)c1O)CCC(C)(C(=O)O)O2 (stereo not shown) [Trolox, 6-Hydroxy-2,5,7,8-tetramethyl-chroman2-carboxylic acid, reference compound] | – | – | 92
